# Experimental data as given in ChEMBL document CHEMBL3352231, “Conformational analysis of an anti-androgenic, (E,E)-8-hydroxygermacrene B, using NOESY and dynamic NMR spectroscopy” (Bioorg Med Chem Lett, 2014).
# Biological target: T1, 3-oxo-5-alpha-steroid 4-dehydrogenase 1 (Rattus norvegicus, UniProt P24008)
# T1 sequence (P24008 whole entry): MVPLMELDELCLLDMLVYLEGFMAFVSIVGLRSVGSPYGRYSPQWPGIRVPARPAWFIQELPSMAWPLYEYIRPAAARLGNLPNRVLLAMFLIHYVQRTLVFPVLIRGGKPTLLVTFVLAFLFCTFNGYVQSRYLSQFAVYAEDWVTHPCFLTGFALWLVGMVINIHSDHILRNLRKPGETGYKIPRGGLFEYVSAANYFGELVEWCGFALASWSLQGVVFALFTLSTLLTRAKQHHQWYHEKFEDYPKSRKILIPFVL
# Experiment: Inhibition of Sprague-Dawley rat liver steroid 5-alpha-reductase assessed as inhibition of testosterone conversion to dihydrotestosterone incubated for 30 mins by HPLC method
row,IC50 [mM],SMILES
1,1.94,CC(C)=C1C/C=C(/C)CC/C=C(/C)CC1=O
2,0.96,C#C[C@]1(O)CC[C@H]2[C@@H]3CCc4cc(O)ccc4[C@H]3CC[C@@]21C [ETHINYL ESTRADIOL]
